The results in this text go back to PubChem BioAssay (NCI).

Holding throughout (test): NCI-60 cell line screen, 48 h
The subject of test [1] is RXF 393 renal.
The test system of test [2] is SK-OV-3 ovarian.
For test [3], the system named is LOX IMVI melanoma.
Test [4] concerns SF-295 CNS.
Test [5] concerns HL-60(TB) leukemia.
In test [6] the test system is K-562 leukemia.
The test system of test [7] is SN12C renal.
In test [8] the test system is SK-MEL-28 melanoma.
The test system of test [9] is PC-3 prostate.
In test [10] the test system is MALME-3M melanoma.

Where “and” joins values, the source holds several entries; their conditions need not be identical. Identical values can stand only once.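 Five concentrations, 48 hours, 96-well plates. GI50 = concentration required for 50% inhibition of growth. TGI denotes the concentration required for complete inhibition of growth.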 Where only a bound is given, the exact number is not on record here.

As for `CN(C)NC(=O)NC12CC3CC(CC(C3)C1)C2`, the TGI in test [1] is greater than 10 µM; in [2], greater than 100 µM; in test [3], greater than 100 µM; in test [4] it was greater than 100 µM; in test [5] it was greater than 100 µM; in test [6], greater than 100 µM. Also, the values for the TGI in test [7] and in test [8] were greater than 100 µM and greater than 10 µM, respectively.
As for `O=C(CC1(O)C(=O)Nc2ccc(Cl)cc21)c1ccc(C(=O)NCC2CCC3(CC2)OOC2(CCCCC2)OO3)cc1` (stereo not given), the GI50 in test [1] is 2.8 µM; in test [2], 2.6 µM; in [3] it was 0.301 µM; in test [4], 2.15 µM; in test [9], 1.88 µM; in test [6] it was 1.89 µM. The GI50 was 3.45 µM in test [7] and 3.33 µM in [8]. The TGI in [1] worked out at 9.16 µM; in test [2], 8.01 µM; in test [3] it was 8.85 µM; in test [4] it was 9.31 µM; in test [9], 5.83 µM; in [6], 4.48 µM. Further, the values for the TGI in test [7] and in test [8] were 18.4 µM and 17.9 µM, respectively.
Consider `Nc1ncc(CN2CCCC2)c(-c2ccccc2O)n1`, for which the TGI in [1], in test [2], in test [3], in test [4], in test [10] and in test [7] was greater than 750 µM in each case. This molecule displayed a TGI in test [8] greater than 750 µM. Moreover, the GI50 in test [5] and in test [6] was greater than 750 µM each time.
Consider `O=C1c2c(c3c4ccccc4n(CC4CO4)c3c3[nH]c4ccccc4c23)C(=O)N1Cc1ccccc1` (stereo not given), for which the TGI in test [1], in test [2], in [3], in test [4], in test [10] and in [5] was greater than 100 µM each time. The TGI in test [6], in [7] and in test [8] was greater than 100 µM throughout.
For `O=C1N(c2ccc(Cl)cc2)C(=O)C2(SC=NN2Cc2ccccc2)N1c1ccc(Cl)cc1` (stereo not given), the TGI in [1], in test [2], in [3], in [10], in test [5] and in test [6] was greater than 100 µM throughout. For the same molecule, the TGI in test [7] and in [8] was greater than 100 µM throughout.
As for `COc1cccc(NC(=O)/C(CS(=O)(=O)CCC(C(C)=O)C(C)=O)=N\NC(C)(C)C)c1`, the TGI in test [1], in test [2], in [3], in test [10], in test [5] and in [6] was greater than 100 µM each time. Besides, the TGI in test [7] and in test [8] was greater than 100 µM each time.
On to `CCn1c(=O)nc2n(-c3ccc(SC)cc3)c3ccccc3nc-2c1=O`, for which the TGI in test [2], in test [4], in [10], in test [5], in [6] and in test [7] was greater than 100 µM each time. This molecule came in with a TGI in [8] greater than 100 µM.
Regarding `C=C1C(C)C2C(Cc3ccccc3)NC(=O)C23C(OC(C)=O)C=CC(C)(O)C(=O)C(C)C/C=C/C3C1O` (stereo not given), the GI50 in test [1] was 0.0604 µM; in test [2] it was 0.0761 µM and 0.23 µM; in test [4] it was 0.418 µM; in test [10], 61.7 µM; in [5], 1.61 µM; in [6] it was 13.6 µM. Further, the values for the GI50 in [7] and in test [8] were 14.9 µM and 22.2 µM, respectively. Further, the TGI was 1.55 µM and 1.04 µM in [1]; 49.5 µM and 76.1 µM in test [2]; 30.5 µM and 62.3 µM in [4]; > 96.7 µM and 489 µM in [10]; 20.5 µM and 15.7 µM in [5]; greater than 500 µM in [6]. Besides, the TGI in test [7] is 499 µM; in test [8], 57.7 µM and 153 µM.
In the case of `C=C(C)[C@@H]1CC[C@]2(C(=O)O)CC[C@]3(C)[C@H](CC[C@@H]4[C@@]5(C)CCC(N)C(C)(C)[C@@H]5CC[C@]43C)[C@@H]12` (stereo not given in full), the GI50 in test [1] is 1.77 µM; in [2], greater than 100 µM; in test [10], 1.56 µM; in test [6] it was 0.682 µM; in test [7], 1.78 µM. Further, the TGI in test [1] is 3.31 µM; in test [2] it was greater than 100 µM; in [10], 3.22 µM; in test [6], 3.36 µM; in test [7], 3.35 µM.
`CC(=O)[CH-]C(=O)c1ccccc1.CC(=O)[CH-]C(=O)c1ccccc1.Cl.[O-]CCc1ccccn1.[O-]CCc1ccccn1.[Ti+4]`: the GI50 was 39.5 µM in test [2]; 25.6 µM in test [3]; 25.6 µM in test [4]; 18.7 µM in test [10]; 21.2 µM in test [5]; 21 µM in test [6]. Also, the GI50 is 36.1 µM in [7] and 20.6 µM in [8]. Moreover, the TGI in [2] is greater than 100 µM; in [3], greater than 100 µM; in test [4], greater than 100 µM; in test [10], 44.1 µM; in test [5], 93.5 µM; in [6], greater than 100 µM. Moreover, the TGI in test [7] is greater than 100 µM; in test [8], 55.1 µM.
With `CCOC(=O)C(=O)CC(=O)C(Br)C(Br)c1ccc(Cl)cc1` (stereo not given), the TGI is 62.6 µM in test [1]; greater than 100 µM in [2]; 78.1 µM in test [3]; greater than 100 µM in [4]; greater than 100 µM in test [10]; 42 µM in test [5]. Besides, the TGI in [6] is 40.8 µM; in test [7] it was greater than 100 µM; in test [8], 72.3 µM.
Turning to `COc1cc2c3c(c4cc(OC)c(OC)cc4c2cc1OC)CN1CCC[C@H]1C3`, the GI50 was 0.00487 µM in test [1]; 0.0357 µM and 0.01 µM in [4]; 0.0853 µM and < 0.0165 µM in test [5]; 0.0429 µM and < 0.0105 µM in test [7]. For the same molecule, the TGI in test [1] is 0.0931 µM; in test [2] it was 0.172 µM; in [3], 0.245 µM and 1.46 µM; in [6] it was > 10 µM and 19.3 µM; in test [7], 1.3 µM and 0.374 µM.
